Assay results from ChEMBL document CHEMBL4433245, “Discovery of GlyT2 Inhibitors Using Structure-Based Pharmacophore Screening and Selectivity Studies by FEP+ Calculations” (ACS Med Chem Lett, 2019).

Assays:
[1] = molecular target: Sodium- and chloride-dependent glycine transporter 1 (Mus musculus) (UniProt P28571); assay: Inhibition of mouse GlyT1 expressed in porcine aorta […] cells assessed as reduction in [3H]-Glycine uptake incubated for 10 mins at pH 7.4 by scintillation spectroscopy
[2] = molecular target: Sodium- and chloride-dependent glycine transporter 1 (Mus musculus) (UniProt P28571); assay: Inhibition of mouse GlyT1 expressed in porcine aorta […] cells assessed as reduction in [3H]-Glycine uptake incubated for 10 mins at pH 7.4 by scintillation spectroscopy relative to untreated control

Sodium- and chloride-dependent glycine transporter 1 (Mus musculus), sequence (P28571 whole entry, looked up): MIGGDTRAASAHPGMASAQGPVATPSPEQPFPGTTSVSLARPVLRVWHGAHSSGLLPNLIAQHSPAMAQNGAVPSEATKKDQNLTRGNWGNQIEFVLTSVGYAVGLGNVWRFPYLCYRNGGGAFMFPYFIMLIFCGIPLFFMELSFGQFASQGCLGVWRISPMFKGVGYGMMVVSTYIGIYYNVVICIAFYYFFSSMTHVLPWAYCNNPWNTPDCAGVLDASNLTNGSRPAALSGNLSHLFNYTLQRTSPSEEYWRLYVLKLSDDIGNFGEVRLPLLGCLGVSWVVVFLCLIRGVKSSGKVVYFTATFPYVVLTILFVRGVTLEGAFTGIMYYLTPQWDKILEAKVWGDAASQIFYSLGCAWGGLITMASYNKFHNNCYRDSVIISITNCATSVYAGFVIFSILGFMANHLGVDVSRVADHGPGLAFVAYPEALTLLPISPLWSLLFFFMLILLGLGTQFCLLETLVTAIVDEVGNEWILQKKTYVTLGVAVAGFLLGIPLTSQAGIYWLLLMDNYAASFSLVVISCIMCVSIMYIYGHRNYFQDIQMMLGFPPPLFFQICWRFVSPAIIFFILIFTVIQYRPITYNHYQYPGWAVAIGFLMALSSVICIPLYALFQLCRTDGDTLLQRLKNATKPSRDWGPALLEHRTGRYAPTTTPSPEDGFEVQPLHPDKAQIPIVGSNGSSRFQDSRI

| SMILES | IC50 [1] [µM] | inhibition [2] [%] |
| --- | --- | --- |
| O=C(O)CCCCSc1ncnc2[nH]c(=O)[nH]c12 | > 200 |  |
| O=C(O)CCSc1[nH]c(=O)nc2[nH]c(=O)[nH]c12 | > 200 |  |
| CN(CC[C@@H](Oc1ccc(-c2ccccc2)cc1)c1ccc(F)cc1)CC(=O)O |  | 80 |
| O=c1[nH]c2c(c(=O)[nH]1)CCN(Cc1ccccc1)C2 | > 200 |  |
